Experimental data as given in article PMC5218480 (PLoS ONE, 2017).

Tested on: MV-4-11 cells
Assay: Gene expression microarray analysis (Affymetrix PrimeView) and GSEA
Assay type: cell-based, human
Parameters: RFU PODN (11730768_x_at) / Fold change /veh PODN (11730768_x_at) / RFU LINC00158 (11744669_a_at) / Fold change /veh LINC00158 (11744669_a_at) / RFU DUSP10 (11751237_a_at) / Fold change /veh DUSP10 (11751237_a_at) / RFU ID3 (11757404_x_at) / Fold change /veh ID3 (11757404_x_at) / RFU PLEKHG5 (11737974_s_at) / Fold change /veh PLEKHG5 (11737974_s_at) / RFU LRRC4B (11730491_at) / Fold change /veh LRRC4B (11730491_at) / RFU GIMAP4 (11747438_a_at) / Fold change /veh GIMAP4 (11747438_a_at) / RFU KRT8 (11758183_x_at) / Fold change /veh KRT8 (11758183_x_at) / RFU CNN1 (11734310_a_at) / Fold change /veh CNN1 (11734310_a_at) / RFU VPS37D (11726825_at) / Fold change /veh VPS37D (11726825_at) / RFU C10orf10 (11716522_x_at) / Fold change /veh C10orf10 (11716522_x_at) / RFU KIR2DL2 /// KIR2DL4 /// KIR2DL5A /// KIR2DL5B /// KIR2DS1 /// KIR2DS2 /// KIR2DS3 /// KIR2DS4 /// KIR3DL3 /// KIR3DL3 /// KIR3DS1 (11738374_at) / Fold change /veh KIR2DL2 /// KIR2DL4 /// KIR2DL5A /// KIR2DL5B /// KIR2DS1 /// KIR2DS2 /// KIR2DS3 /// KIR2DS4 /// KIR3DL3 /// KIR3DL3 /// KIR3DS1 (11738374_at) / RFU C1QL1 (11718748_at) / Fold change /veh C1QL1 (11718748_at) / RFU TMPRSS4 (11747572_a_at) / Fold change /veh TMPRSS4 (11747572_a_at) / RFU HAMP (11756126_x_at) / Fold change /veh HAMP (11756126_x_at) / RFU RNFT2 (11725882_a_at) / Fold change /veh RNFT2 (11725882_a_at) / RFU NR4A2 (11747474_a_at) / Fold change /veh NR4A2 (11747474_a_at) / RFU ABCC12 (11746883_a_at) / Fold change /veh ABCC12 (11746883_a_at) / RFU TMEM136 (11760407_x_at) / Fold change /veh TMEM136 (11760407_x_at) / RFU CLDN22 /// WWC2 (11732394_at) / Fold change /veh CLDN22 /// WWC2 (11732394_at) / RFU HLA-DPB1 (11760878_x_at) / Fold change /veh HLA-DPB1 (11760878_x_at) / RFU SPINT1 (11716480_a_at) / Fold change /veh SPINT1 (11716480_a_at) / RFU GAP43 (11754022_s_at) / Fold change /veh GAP43 (11754022_s_at) / RFU A4GNT (11735810_at) / Fold change /veh A4GNT (11735810_at) / RFU PRB3 (11715151_x_at) / Fold change /veh PRB3 (11715151_x_at) / RFU TUBB4B (11761932_at) / Fold change /veh TUBB4B (11761932_at) / RFU CAPN14 (11732068_a_at) / Fold change /veh CAPN14 (11732068_a_at) / RFU TMCC2 (11721928_a_at) / Fold change /veh TMCC2 (11721928_a_at) / RFU IRGQ (11745062_a_at) / Fold change /veh IRGQ (11745062_a_at) / RFU FAM174B (11720279_a_at) / Fold change /veh FAM174B (11720279_a_at) / RFU TMPRSS4 (11748680_a_at) / Fold change /veh TMPRSS4 (11748680_a_at) / RFU FAM212B (11763350_a_at) / Fold change /veh FAM212B (11763350_a_at) / RFU PLEKHG5 (11743358_a_at) / Fold change /veh PLEKHG5 (11743358_a_at) / RFU ZSCAN30 (11745921_a_at) / Fold change /veh ZSCAN30 (11745921_a_at) / RFU CMKLR1 (11741424_a_at) / Fold change /veh CMKLR1 (11741424_a_at) / RFU LOC101060620 /// MAPK8IP1 (11723275_at) / Fold change /veh LOC101060620 /// MAPK8IP1 (11723275_at) / RFU SPTSSB (11747773_x_at) / Fold change /veh SPTSSB (11747773_x_at) / RFU PRSS12 (11739890_at) / Fold change /veh PRSS12 (11739890_at) / RFU BIN1 (11741810_x_at) / Fold change /veh BIN1 (11741810_x_at) / RFU WNT11 (11732464_a_at) / Fold change /veh WNT11 (11732464_a_at) / RFU C10orf10 (11716521_a_at) / Fold change /veh C10orf10 (11716521_a_at) / RFU C5orf56 (11738089_at) / Fold change /veh C5orf56 (11738089_at) / RFU CYB561 (11721691_x_at) / Fold change /veh CYB561 (11721691_x_at) / RFU ANKRD19P (11752326_a_at) / Fold change /veh ANKRD19P (11752326_a_at) / RFU OR2T12 /// OR2T33 /// OR2T8 (11738714_s_at) / Fold change /veh OR2T12 /// OR2T33 /// OR2T8 (11738714_s_at) / RFU VCAN (11748164_a_at) / Fold change /veh VCAN (11748164_a_at) / RFU JSRP1 (11732532_at) / Fold change /veh JSRP1 (11732532_at) / RFU KRTAP10-11 (11738290_x_at) / Fold change /veh KRTAP10-11 (11738290_x_at) / RFU MYO3A (11730013_a_at) / Fold change /veh MYO3A (11730013_a_at) / RFU EBF3 (11725865_a_at) / Fold change /veh EBF3 (11725865_a_at) / RFU CAMK2N1 (11719241_x_at) / Fold change /veh CAMK2N1 (11719241_x_at) / RFU C5orf56 (11738088_a_at) / Fold change /veh C5orf56 (11738088_a_at) / RFU OLFML3 (11715873_a_at) / Fold change /veh OLFML3 (11715873_a_at) / RFU LOC100653217 /// NTM (11731650_a_at) / Fold change /veh LOC100653217 /// NTM (11731650_a_at) / RFU MAPK11 (11762145_a_at) / Fold change /veh MAPK11 (11762145_a_at) / RFU FIZ1 (11724087_x_at) / Fold change /veh FIZ1 (11724087_x_at) / RFU OASL (11726364_x_at) / Fold change /veh OASL (11726364_x_at) / RFU SOX15 (11748057_x_at) / Fold change /veh SOX15 (11748057_x_at) / RFU CD79A (11719716_a_at) / Fold change /veh CD79A (11719716_a_at) / RFU HIST1H1D (11736915_at) / Fold change /veh HIST1H1D (11736915_at) / RFU CASKIN2 (11723855_a_at) / Fold change /veh CASKIN2 (11723855_a_at) / RFU LOC730098 (11760151_x_at) / Fold change /veh LOC730098 (11760151_x_at) / RFU OR4N2 (11742367_at) / Fold change /veh OR4N2 (11742367_at) / RFU PRRT2 (11749266_a_at) / Fold change /veh PRRT2 (11749266_a_at) / RFU SNX32 (11753110_a_at) / Fold change /veh SNX32 (11753110_a_at) / RFU CDHR5 (11726645_a_at) / Fold change /veh CDHR5 (11726645_a_at) / RFU RCAN1 (11760418_a_at) / Fold change /veh RCAN1 (11760418_a_at) / RFU FAM167A (11723789_a_at) / Fold change /veh FAM167A (11723789_a_at) / RFU FAM26E (11764081_at) / Fold change /veh FAM26E (11764081_at) / RFU ISYNA1 (11749810_s_at) / Fold change /veh ISYNA1 (11749810_s_at) / RFU ACY1 (11761880_at) / Fold change /veh ACY1 (11761880_at) / RFU 11764098_at / Fold change /veh 11764098_at / RFU SAMD14 (11745864_x_at) / Fold change /veh SAMD14 (11745864_x_at) / RFU NPB (11741838_a_at) / Fold change /veh NPB (11741838_a_at) / RFU TMPRSS6 (11731388_a_at) / Fold change /veh TMPRSS6 (11731388_a_at) / RFU KRTAP10-2 (11738614_at) / Fold change /veh KRTAP10-2 (11738614_at) / RFU ARHGAP8 /// PRR5-ARHGAP8 (11727945_x_at) / Fold change /veh ARHGAP8 /// PRR5-ARHGAP8 (11727945_x_at) / RFU KRTAP5-7 /// NADSYN1 (11734609_at) / Fold change /veh KRTAP5-7 /// NADSYN1 (11734609_at) / RFU RASL12 (11751679_a_at) / Fold change /veh RASL12 (11751679_a_at) / RFU CDKN2B (11736163_a_at) / Fold change /veh CDKN2B (11736163_a_at) / RFU PRF1 (11729649_at) / Fold change /veh PRF1 (11729649_at) / RFU, ZNF638 /// ZNF638-IT1 / Fold change vs veh, ZNF638 /// ZNF638-IT1 / RFU, PANK3 / Fold change vs veh, PANK3 / RFU, SH3YL1 / Fold change vs veh, SH3YL1 / RFU, ZEB2 / Fold change vs veh, ZEB2 / RFU, NRIP1 / Fold change vs veh, NRIP1 / RFU, PTTG1IP / Fold change vs veh, PTTG1IP / RFU, CAPN2 / Fold change vs veh, CAPN2 / RFU, MED14 / Fold change vs veh, MED14 / RFU, SNORA58 / Fold change vs veh, SNORA58 / RFU, C1orf63 / Fold change vs veh, C1orf63 / RFU, LRRFIP1 / Fold change vs veh, LRRFIP1 / RFU, NDUFAF7 / Fold change vs veh, NDUFAF7 / RFU, SLC12A2 / Fold change vs veh, SLC12A2 / RFU, IBTK / Fold change vs veh, IBTK / RFU, ESF1 / Fold change vs veh, ESF1 / Fold change vs veh, TMEM50B / RFU, TAOK1 / Fold change vs veh, TAOK1 / RFU, ACBD3 / Fold change vs veh, ACBD3 / RFU, TMA16 / Fold change vs veh, TMA16 / RFU, RWDD3 / Fold change vs veh, RWDD3 / RFU, BCAT1 / Fold change vs veh, BCAT1 / RFU, EDEM3 / Fold change vs veh, EDEM3 / RFU, TMEM33 / Fold change vs veh, TMEM33 / RFU, WDR75 / Fold change vs veh, WDR75 / RFU, AHCTF1 / Fold change vs veh, AHCTF1 / RFU, TFRC / Fold change vs veh, TFRC / RFU, ZDHHC17 / Fold change vs veh, ZDHHC17 / RFU, NOM1 / Fold change vs veh, NOM1 / RFU, ARL8B / Fold change vs veh, ARL8B / RFU, ZBTB11 / Fold change vs veh, ZBTB11 / RFU, TAMM41 / Fold change vs veh, TAMM41 / RFU, KIAA1704 /// LOC100996395 / Fold change vs veh, KIAA1704 /// LOC100996395 / RFU, ING1 / Fold change vs veh, ING1 / RFU, TRMT61B / Fold change vs veh, TRMT61B / RFU, FUBP3 / Fold change vs veh, FUBP3 / RFU, TP53 / Fold change vs veh, TP53 / RFU, TNKS2 / Fold change vs veh, TNKS2 / RFU, ZFP14 / Fold change vs veh, ZFP14 / RFU, ACTR2 / Fold change vs veh, ACTR2 / RFU, PPP3R1 / Fold change vs veh, PPP3R1 / RFU, PIK3R1 / Fold change vs veh, PIK3R1 / RFU, HNRNPA1 / Fold change vs veh, HNRNPA1 / RFU, RNF170 / Fold change vs veh, RNF170 / RFU, ZNF28 / Fold change vs veh, ZNF28 / RFU, RNGTT / Fold change vs veh, RNGTT / RFU, OGT / Fold change vs veh, OGT / RFU, BRD1 / Fold change vs veh, BRD1 / RFU, MARS / Fold change vs veh, MARS / RFU, ZNF655 / Fold change vs veh, ZNF655 / RFU, FAHD1 / Fold change vs veh, FAHD1 / RFU, BDP1 / Fold change vs veh, BDP1 / RFU, LRRCC1 / Fold change vs veh, LRRCC1 / RFU, ARID1A / Fold change vs veh, ARID1A / RFU, ZNF146 / Fold change vs veh, ZNF146 / RFU, ZNF330 / Fold change vs veh, ZNF330 / RFU, GPN3 / Fold change vs veh, GPN3 / RFU, C9orf123 / Fold change vs veh, C9orf123 / RFU, N4BP2L2 / Fold change vs veh, N4BP2L2 / RFU, ARFIP1 / Fold change vs veh, ARFIP1 / RFU, FAM179B / Fold change vs veh, FAM179B / RFU, BCL10 / Fold change vs veh, BCL10 / RFU, UHRF1BP1L / Fold change vs veh, UHRF1BP1L / RFU, BET1 / Fold change vs veh, BET1 / RFU, CNOT2 / Fold change vs veh, CNOT2 / RFU, ZNF268 / Fold change vs veh, ZNF268 / Fold change vs veh, ZNF507 / RFU, DGCR2 / Fold change vs veh, DGCR2 / RFU, WDSUB1 / Fold change vs veh, WDSUB1 / Fold change vs veh, HSP90B1 /// MIR3652 / RFU, ADSS / Fold change vs veh, ADSS / RFU, GK / Fold change vs veh, GK / RFU, ZNF148 / Fold change vs veh, ZNF148 / RFU, TAF9 / Fold change vs veh, TAF9 / RFU, SLC1A5 / Fold change vs veh, SLC1A5 / RFU, SLMO2 / Fold change vs veh, SLMO2 / RFU, ABCC4 / Fold change vs veh, ABCC4 / RFU, LOC101060439 /// RAP1B / Fold change vs veh, LOC101060439 /// RAP1B / RFU, RFX7 / Fold change vs veh, RFX7 / RFU, GTPBP10 / Fold change vs veh, GTPBP10 / RFU, CNEP1R1 / Fold change vs veh, CNEP1R1 / RFU, BIVM-ERCC5 /// ERCC5 / Fold change vs veh, BIVM-ERCC5 /// ERCC5 / RFU, ILF3 / Fold change vs veh, ILF3 / RFU 11762660_at / Fold change /veh 11762660_at / RFU VCAN (11757783_s_at) / Fold change /veh VCAN (11757783_s_at) / RFU DDX43 (11728927_at) / Fold change /veh DDX43 (11728927_at) / RFU KRT8 (11758188_x_at) / Fold change /veh KRT8 (11758188_x_at) / RFU NKD1 (11759106_at) / Fold change /veh NKD1 (11759106_at) / RFU SRD5A1 (11742802_a_at) / Fold change /veh SRD5A1 (11742802_a_at) / RFU TPSAB1 /// TPSB2 (11721975_s_at) / Fold change /veh TPSAB1 /// TPSB2 (11721975_s_at) / RFU GSTM3 (11746129_a_at) / Fold change /veh GSTM3 (11746129_a_at) / RFU IL23R (11737362_x_at) / Fold change /veh IL23R (11737362_x_at) / RFU TMEM51 (11727254_a_at) / Fold change /veh TMEM51 (11727254_a_at) / RFU PIWIL2 (11732686_x_at) / Fold change /veh PIWIL2 (11732686_x_at) / RFU ORM1 (11744905_x_at) / Fold change /veh ORM1 (11744905_x_at) / RFU CCDC152 (11743942_at) / Fold change /veh CCDC152 (11743942_at) / RFU ECM1 (11717891_a_at) / Fold change /veh ECM1 (11717891_a_at) / RFU IL23R (11748794_a_at) / Fold change /veh IL23R (11748794_a_at) / RFU TNFAIP8L3 (11732012_x_at) / Fold change /veh TNFAIP8L3 (11732012_x_at) / RFU MBOAT4 (11741988_at) / Fold change /veh MBOAT4 (11741988_at) / RFU 11764193_at / Fold change /veh 11764193_at / RFU TMEM53 (11763286_at) / Fold change /veh TMEM53 (11763286_at) / RFU MAGEB2 (11727129_at) / Fold change /veh MAGEB2 (11727129_at) / RFU TMEM200A (11744735_a_at) / Fold change /veh TMEM200A (11744735_a_at) / RFU CCDC152 (11751479_a_at) / Fold change /veh CCDC152 (11751479_a_at) / RFU FAM211A (11726209_a_at) / Fold change /veh FAM211A (11726209_a_at) / RFU RGS16 (11746705_a_at) / Fold change /veh RGS16 (11746705_a_at) / RFU VCAN (11755009_s_at) / Fold change /veh VCAN (11755009_s_at) / RFU RHOB (11743442_s_at) / Fold change /veh RHOB (11743442_s_at) / RFU RGS16 (11720943_a_at) / Fold change /veh RGS16 (11720943_a_at) / RFU RGS16 (11720944_at) / Fold change /veh RGS16 (11720944_at) / RFU, VPS4B / Fold change vs veh, VPS4B / RFU, CREB1 / Fold change vs veh, CREB1 / RFU, DNAJC13 / Fold change vs veh, DNAJC13 / RFU, GNAQ / Fold change vs veh, GNAQ / RFU, CDK5R1 / Fold change vs veh, CDK5R1 / RFU, ZRANB3 / Fold change vs veh, ZRANB3 / RFU, CUL4A / Fold change vs veh, CUL4A / RFU, CCNY / Fold change vs veh, CCNY / RFU, UFL1 / Fold change vs veh, UFL1 / RFU, COG3 / Fold change vs veh, COG3 / RFU, DIAPH2 / Fold change vs veh, DIAPH2 / RFU, SKA2 / Fold change vs veh, SKA2 / RFU, AFF3 / Fold change vs veh, AFF3 / RFU, LMF1 / Fold change vs veh, LMF1 / RFU, IPO11 / Fold change vs veh, IPO11 / RFU, DFFB / Fold change vs veh, DFFB / RFU, FOXP1 / Fold change vs veh, FOXP1 / RFU, CARD8 / Fold change vs veh, CARD8 / RFU, STRN3 / Fold change vs veh, STRN3 / RFU, ADK / Fold change vs veh, ADK / RFU, RASSF2 / Fold change vs veh, RASSF2 / RFU, WIPF1 / Fold change vs veh, WIPF1 / RFU, LARP1B / Fold change vs veh, LARP1B / RFU, RASA1 / Fold change vs veh, RASA1 / RFU, RB1 / Fold change vs veh, RB1 / RFU, PPFIA1 / Fold change vs veh, PPFIA1 / RFU, MAT2A / Fold change vs veh, MAT2A / RFU, CCT5 / Fold change vs veh, CCT5 / RFU, WDR92 / Fold change vs veh, WDR92 / RFU, CUX1 / Fold change vs veh, CUX1 / RFU, TTC7A / Fold change vs veh, TTC7A / RFU, TMEM135 / Fold change vs veh, TMEM135 / RFU, DEPTOR / Fold change vs veh, DEPTOR / RFU, CPM / Fold change vs veh, CPM / RFU, DNAJB6 / Fold change vs veh, DNAJB6 / RFU, CACNA2D3 / Fold change vs veh, CACNA2D3 / RFU, DTX4 / Fold change vs veh, DTX4 / RFU, TFCP2 / Fold change vs veh, TFCP2 / RFU, GMCL1 /// GMCL1P1 / Fold change vs veh, GMCL1 /// GMCL1P1 / RFU, AEBP2 / Fold change vs veh, AEBP2 / RFU, SNHG1 /// SNORD22 /// SNORD25 /// SNORD26 /// SNORD27 /// SNORD28 /// SNORD29 /// SNORD31 / Fold change vs veh, SNHG1 /// SNORD22 /// SNORD25 /// SNORD26 /// SNORD27 /// SNORD28 /// SNORD29 /// SNORD31 / Fold change (Aza/veh), C12orf56 (ProbeSet 11735607_a_at) / Fold change (ACY-1035/veh), C12orf56 (ProbeSet 11735607_a_at) / Fold change (Aza/veh), FGFR1OP (ProbeSet 11751329_s_at) / Fold change (ACY-1035/veh), FGFR1OP (ProbeSet 11751329_s_at) / Fold change (Aza/veh), VPS36 (ProbeSet 11739960_a_at) / Fold change (ACY-1035/veh), VPS36 (ProbeSet 11739960_a_at) / RFU SYPL1 (11715823_x_at) / Fold change /veh SYPL1 (11715823_x_at) / RFU IGFBP7 (11715501_s_at) / Fold change /veh IGFBP7 (11715501_s_at) / RFU REEP3 (11722064_at) / Fold change /veh REEP3 (11722064_at) / RFU IGLL1 (11728026_x_at) / Fold change /veh IGLL1 (11728026_x_at): dose or concentration left out as unconfirmed
Details: MV-4-11 cells, 48 hours

## Nc1ccc(-c2cccs2)cc1NC(=O)c1ccc2c(c1)cc(C1CC1)n2CCN1CCOCC1 [ACY-1035]
  RFU KIR2DL2 /// KIR2DL4 /// KIR2DL5A /// KIR2DL5B /// KIR2DS1 /// KIR2DS2 /// KIR2DS3 /// KIR2DS4 /// KIR3DL3 /// KIR3DL3 /// KIR3DS1 (11738374_at): 11.07 RFU
